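In this assay, cells in 96-well plates receive the compound at five concentrations for 48 hours. Endpoints are linearly interpolated between the surrounding concentrations. GI50 marks 50% less growth.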 Calls of active or inactive are those of the source. Cut-off read from the data, not from the text of the source: active = GI50 up to about 1.1 µM and inactive = higher.
What was measured:
Assay in all cases: NCI tumour cell line growth inhibition, 48 h
[1] = tested on: 786-0
[2] = tested on: CCRF-CEM
[3] = tested on: HCC 2998
[4] = tested on: HT-29
[5] = tested on: LOX IMVI
[6] = tested on: MCF7
[7] = tested on: MOLT-4
[8] = tested on: NCI-H23
[9] = tested on: OVCAR-4
[10] = tested on: PC-3
[11] = tested on: SF-268
[12] = tested on: SF-295
[13] = tested on: SK-MEL-28
[14] = tested on: SK-MEL-2
[15] = tested on: SNB-19
[16] = tested on: SNB-75
[17] = tested on: SW-620
[18] = tested on: TK-10
[19] = tested on: UACC-62
[20] = tested on: Malme-3M

| SMILES | GI50 [1] | GI50 [2] | GI50 [3] | GI50 [4] | GI50 [5] | GI50 [6] | GI50 [7] | GI50 [8] | GI50 [9] | GI50 [10] | GI50 [11] | GI50 [12] | GI50 [13] | GI50 [14] | GI50 [15] | GI50 [16] | GI50 [17] | GI50 [18] | GI50 [19] | GI50 [20] |
| --- | --- | --- | --- | --- | --- | --- | --- | --- | --- | --- | --- | --- | --- | --- | --- | --- | --- | --- | --- | --- |
| Cc1sc2nc3n(sc4nc5sc(C)c(C)c5c(=O)n43)c(=O)c2c1C | > 100 µM (inactive) | 16.4 µM (inactive) | > 100 µM (inactive) | > 100 µM (inactive) | > 100 µM (inactive) | 82.4 µM (inactive) | 23 µM (inactive) | > 100 µM (inactive) | 63.8 µM (inactive) | > 100 µM (inactive) | > 100 µM (inactive) | > 100 µM (inactive) | > 100 µM (inactive) | > 100 µM (inactive) | > 100 µM (inactive) | 4.81 µM (inactive) | 45.9 µM (inactive) | > 100 µM (inactive) | 33.2 µM (inactive) | – |
| Cc1nc2cccc(F)c2c(=O)n1-c1nnc(C2CC2)s1 | > 10 µM (inactive) | > 10 µM (inactive) | > 10 µM (inactive) | > 10 µM (inactive) | > 10 µM (inactive) | > 10 µM (inactive) | > 10 µM (inactive) | > 10 µM (inactive) | > 10 µM (inactive) | > 10 µM (inactive) | > 10 µM (inactive) | > 10 µM (inactive) | > 10 µM (inactive) | > 10 µM (inactive) | > 10 µM (inactive) | > 10 µM (inactive) | > 10 µM (inactive) | > 10 µM (inactive) | > 10 µM (inactive) | – |
| CCOC(=O)/C=C/[C@H](O[Si](c1ccccc1)(c1ccccc1)c1ccccc1)C(C)(C)C | > 31.6 µM (inactive) | 15.8 µM (inactive) | 5.92 µM (inactive) | 7.03 µM (inactive) | > 31.6 µM (inactive) | > 31.6 µM (inactive) | 14.1 µM (inactive) | > 31.6 µM (inactive) | > 31.6 µM (inactive) | 10.5 µM (inactive) | > 31.6 µM (inactive) | > 31.6 µM (inactive) | > 10 µM (inactive) | > 31.6 µM (inactive) | > 31.6 µM (inactive) | > 31.6 µM (inactive) | > 31.6 µM (inactive) | > 31.6 µM (inactive) | > 31.6 µM (inactive) | > 31.6 µM (inactive) |
| NC1=NN(c2ccccc2)C2(c3ccncc3C(=O)O)C1C(N)=NN2c1ccccc1 (centres undefined) | > 100 µM (inactive) | > 100 µM (inactive) | > 100 µM (inactive) | > 100 µM (inactive) | > 100 µM (inactive) | > 100 µM (inactive) | > 100 µM (inactive) | > 100 µM (inactive) | > 100 µM (inactive) | > 100 µM (inactive) | > 100 µM (inactive) | > 100 µM (inactive) | > 100 µM (inactive) | > 100 µM (inactive) | > 100 µM (inactive) | > 100 µM (inactive) | > 100 µM (inactive) | – | > 100 µM (inactive) | > 100 µM (inactive) |
| COC(=O)C12CCC(C)(C)CC1C1=CCC3C4(C)CC(O)C(O)C(C)(C(=O)OC)C4CCC3(C)C1(CO)CC2 (centres undefined) | 10.2 µM (inactive) | 14.3 µM (inactive) | 13.9 µM (inactive) | 13.6 µM (inactive) | 14 µM (inactive) | 14.1 µM (inactive) | 8.13 µM (inactive) | 15.5 µM (inactive) | 13.5 µM (inactive) | 10.3 µM (inactive) | 18.5 µM (inactive) | 14.7 µM (inactive) | – | 14 µM (inactive) | 16.6 µM (inactive) | 11.9 µM (inactive) | 11.4 µM (inactive) | 19 µM (inactive) | 14.3 µM (inactive) | – |
| C=C(C)C(=O)/N=C(\N)NC#N | 37.8 µM (inactive) | 23.7 µM (inactive) | 132 µM (inactive) | 62.8 µM (inactive) | 33 µM (inactive) | 47.5 µM (inactive) | – | 72.3 µM (inactive) | 19.9 µM (inactive) | 158 µM (inactive) | 27.1 µM (inactive) | > 90.2 µM (inactive) | 28.9 µM (inactive) | 47.2 µM (inactive) | 182 µM (inactive) | 67.9 µM (inactive) | 19.3 µM (inactive) | 41.7 µM (inactive) | 34.7 µM (inactive) | 24.8 µM (inactive) |
| O=C(Oc1c(Cl)cc(C2(c3cc(Cl)c(OC(=O)c4ccccc4)c(Cl)c3)CCCCC2)cc1Cl)c1ccccc1 | 14.1 µM (inactive) | 8 µM (inactive) | 10.1 µM (inactive) | 14.6 µM (inactive) | 14.2 µM (inactive) | 11.1 µM (inactive) | 5 µM (inactive) | 10.4 µM (inactive) | 10.9 µM (inactive) | 9.42 µM (inactive) | 12.6 µM (inactive) | 13.4 µM (inactive) | 14.7 µM (inactive) | 11.2 µM (inactive) | 17.6 µM (inactive) | 11.7 µM (inactive) | 16.2 µM (inactive) | 16.7 µM (inactive) | 10.5 µM (inactive) | – |
| COC1/C=C\C=C(/C)C(=O)Nc2cc3nc4ccc(Br)cc4oc-3c(c2=O)CC(C)CC(OC)C(O)C(C)/C=C(\C)C1OC(N)=O (centres undefined) | 0.0227 µM (active) | – | 0.126 µM (active) | < 0.0396 µM (active) | 0.0565 µM (active) | 0.000752 µM (active) | < 0.0103 µM (active) | – | 0.469 µM (active) | 0.931 µM (active) | 0.499 µM (active) | 12.6 µM (inactive) | 0.0137 µM (active) | 0.0741 µM (active) | 13 µM (inactive) | 7.08 µM (inactive) | 0.01 µM (active) | 0.0424 µM (active) | 0.0391 µM (active) | 0.0179 µM (active) |
| COC(=O)C1=NN2c3ccccc3C(=O)OCCC2(C)C1 (centres undefined) | > 100 µM (inactive) | > 100 µM (inactive) | > 100 µM (inactive) | > 100 µM (inactive) | > 100 µM (inactive) | > 100 µM (inactive) | > 100 µM (inactive) | > 100 µM (inactive) | > 100 µM (inactive) | > 100 µM (inactive) | > 100 µM (inactive) | > 100 µM (inactive) | > 100 µM (inactive) | > 100 µM (inactive) | – | > 100 µM (inactive) | > 100 µM (inactive) | > 100 µM (inactive) | > 100 µM (inactive) | > 100 µM (inactive) |
| O=C(/C=C/c1ccccc1)CCC1C(=O)c2ccccc2C1=O | > 100 µM (inactive) | > 100 µM (inactive) | > 100 µM (inactive) | > 100 µM (inactive) | > 100 µM (inactive) | > 100 µM (inactive) | > 100 µM (inactive) | > 100 µM (inactive) | 31.3 µM (inactive) | > 100 µM (inactive) | > 100 µM (inactive) | > 100 µM (inactive) | > 100 µM (inactive) | > 100 µM (inactive) | > 100 µM (inactive) | 19.7 µM (inactive) | > 100 µM (inactive) | – | > 100 µM (inactive) | > 100 µM (inactive) |
| CC1=C(C#N)C2C(=C(N)Oc3ccccc32)C(N)=N1 (centres undefined) | 20.4 µM (inactive) | 30.1 µM (inactive) | 29.4 µM (inactive) | 27.2 µM (inactive) | 20.1 µM (inactive) | 6.56 µM (inactive) | 75 µM (inactive) | > 10 µM (inactive) | 32.8 µM (inactive) | 33.3 µM (inactive) | 24.5 µM (inactive) | 26.9 µM (inactive) | – | 20.1 µM (inactive) | 21.8 µM (inactive) | 18.7 µM (inactive) | 32.9 µM (inactive) | 21.1 µM (inactive) | 20.7 µM (inactive) | 16 µM (inactive) |
| COc1ccc(-n2c(CCC(=O)O)nc3c2C(=O)c2ccccc2C3=O)cc1 | > 100 µM (inactive) | 88.9 µM (inactive) | > 100 µM (inactive) | > 100 µM (inactive) | 28.3 µM (inactive) | 84.5 µM (inactive) | > 100 µM (inactive) | > 100 µM (inactive) | > 100 µM (inactive) | > 100 µM (inactive) | > 100 µM (inactive) | > 100 µM (inactive) | > 100 µM (inactive) | 88.1 µM (inactive) | > 100 µM (inactive) | > 100 µM (inactive) | > 100 µM (inactive) | > 100 µM (inactive) | > 100 µM (inactive) | – |
| Nn1c(CCCCCCCCc2nnc(COc3ccc4ccccc4c3O)n2N)nnc1COc1ccc2ccccc2c1O | 33.9 µM (inactive) | – | 25.2 µM (inactive) | 25.3 µM (inactive) | – | 27.2 µM (inactive) | 14.9 µM (inactive) | 16 µM (inactive) | 34.1 µM (inactive) | 26.7 µM (inactive) | 29.8 µM (inactive) | 28.6 µM (inactive) | 32.4 µM (inactive) | 32.1 µM (inactive) | 30 µM (inactive) | 51.1 µM (inactive) | 52.7 µM (inactive) | 49.2 µM (inactive) | 26.4 µM (inactive) | 4.48 µM (inactive) |
| O=C(Nc1ncc([N+](=O)[O-])s1)c1ccccc1O [TIZOXANIDE] | 24.4 µM (inactive) | – | 13.6 µM (inactive) | 14.5 µM (inactive) | 24.6 µM (inactive) | 13.7 µM (inactive) | 18.5 µM (inactive) | 12.5 µM (inactive) | 38.3 µM (inactive) | 11.9 µM (inactive) | 13.6 µM (inactive) | 7.89 µM (inactive) | 26.4 µM (inactive) | 12.5 µM (inactive) | 16.2 µM (inactive) | 18.1 µM (inactive) | 34.1 µM (inactive) | 21.4 µM (inactive) | 4.66 µM (inactive) | 12.9 µM (inactive) |

Reference: ChEMBL document CHEMBL1201862, “PubChem BioAssay data set” (2004)
